Test results published in PubChem BioAssay AID1845204 (Molecular Pharmacology Branch, DTP, NCI, 2023).

Tested on: HSSY-II tumor spheroid viability
Assay: Anticancer human tumor HSSY-II cell line growth inhibition;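 note: spheroids exposed to compounds for seven days before reading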;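 for viability, T/C: percent of DMSO vehicle control viability so 100% = untreated level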
Conditions: spheroids with HUVEC and MSC; for IC50: curve of first compound; for viability, T/C: stronger effect = lower value
Procedure, shortened: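 Complex spheroids of malignant cells with endothelial cells and mesenchymal stem cells; agents alone or combined, from near clinical Cmax (or 10 microM if unknown) down in half-log steps, 0.25% DMSO final.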

[1] = second compound 1 µM, first compound 0.0316 µM
[2] = second compound 1 µM, first compound 0.1 µM
[3] = second compound 1 µM, first compound 0.316 µM
[4] = second compound 1 µM, first compound 1 µM
[5] = second compound 1 µM, first compound 3.16 µM
[6] = second compound 1 µM, first compound 10 µM
[7] = second compound 3.16 µM, first compound 0.0316 µM
[8] = second compound 3.16 µM, first compound 0.1 µM
[9] = second compound 3.16 µM, first compound 0.316 µM
[10] = second compound 3.16 µM, first compound 1 µM
[11] = second compound 3.16 µM, first compound 3.16 µM
[12] = second compound 3.16 µM, first compound 10 µM
[13] = second compound 10 µM, first compound 0.0316 µM
[14] = second compound 10 µM, first compound 0.1 µM
[15] = second compound 10 µM, first compound 0.316 µM
[16] = second compound 10 µM, first compound 1 µM
[17] = second compound 10 µM, first compound 3.16 µM
[18] = second compound 10 µM, first compound 10 µM
[19] = second compound 31.6 µM, first compound 0.0316 µM
[20] = second compound 31.6 µM, first compound 0.1 µM
[21] = second compound 31.6 µM, first compound 0.316 µM
[22] = second compound 31.6 µM, first compound 1 µM
[23] = second compound 31.6 µM, first compound 3.16 µM
[24] = second compound 31.6 µM, first compound 10 µM
[25] = second compound 100 µM, first compound 0.0316 µM
[26] = second compound 100 µM, first compound 0.1 µM
[27] = second compound 100 µM, first compound 0.316 µM
[28] = second compound 100 µM, first compound 1 µM
[29] = second compound 100 µM, first compound 3.16 µM
[30] = second compound 100 µM, first compound 10 µM

Work on COc1cc(C)[nH]c(=O)c1CN1CCc2c(Cl)cc(C(OC)C3COC3)c(Cl)c2C1=O (stereo not given) + COc1cc2c(cc1O)CCNC21CSC2c3c(OC(C)=O)c(C)c4c(c3C(COC1=O)N1C(O)C3Cc5cc(C)c(OC)c(O)c5C(C21)N3C)OCO4 yielded an IC50 (second compound 30 pM) greater than 10000 nM, an IC50 (second compound 94.9 pM) greater than 10000 nM and an IC50 (second compound 0.0003 µM) of less than 31.6 nM. It also gave an IC50 (second compound 0.000949 µM) of less than 31.6 nM, an IC50 (second compound 0.003 µM) of less than 31.6 nM and a viability, T/C (second compound 30 pM, first compound 0.0316 µM) of 132%. For the same molecule, the viability, T/C (second compound 30 pM, first compound 0.1 µM) was 117%, the viability, T/C (second compound 30 pM, first compound 0.316 µM) was 108% and the viability, T/C (second compound 30 pM, first compound 1 µM) was 92.5%. For the same molecule, the viability, T/C (second compound 30 pM, first compound 3.16 µM) was 86%, the viability, T/C (second compound 30 pM, first compound 10 µM) was 90.1% and the viability, T/C (second compound 94.9 pM, first compound 0.0316 µM) was 121%. It also gave a viability, T/C (second compound 94.9 pM, first compound 0.1 µM) of 99.9%, a viability, T/C (second compound 94.9 pM, first compound 0.316 µM) of 97.8% and a viability, T/C (second compound 94.9 pM, first compound 1 µM) of 89.7%. The viability, T/C (second compound 94.9 pM, first compound 3.16 µM) was 81.4%, the viability, T/C (second compound 94.9 pM, first compound 10 µM) was 70.8% and the viability, T/C (second compound 0.0003 µM, first compound 0.0316 µM) was 20.1%. It also gave a viability, T/C (second compound 0.0003 µM, first compound 0.1 µM) of 15.3%, a viability, T/C (second compound 0.0003 µM, first compound 0.316 µM) of 19.4% and a viability, T/C (second compound 0.0003 µM, first compound 1 µM) of 23.8%. It also gave a viability, T/C (second compound 0.0003 µM, first compound 3.16 µM) of 21.3%, a viability, T/C (second compound 0.0003 µM, first compound 10 µM) of 19.3% and a viability, T/C (second compound 0.000949 µM, first compound 0.0316 µM) of 3.35%. It also gave a viability, T/C (second compound 0.000949 µM, first compound 0.1 µM) of 3.82%, a viability, T/C (second compound 0.000949 µM, first compound 0.316 µM) of 3.22% and a viability, T/C (second compound 0.000949 µM, first compound 1 µM) of 4.24%. It also gave a viability, T/C (second compound 0.000949 µM, first compound 3.16 µM) of 4.87%, a viability, T/C (second compound 0.000949 µM, first compound 10 µM) of 4.39% and a viability, T/C (second compound 0.003 µM, first compound 0.0316 µM) of 0.33%. For the same molecule, the viability, T/C (second compound 0.003 µM, first compound 0.1 µM) was 0.35%, the viability, T/C (second compound 0.003 µM, first compound 0.316 µM) was 0.32% and the viability, T/C (second compound 0.003 µM, first compound 1 µM) was 0.3%. For the same molecule, the viability, T/C (second compound 0.003 µM, first compound 3.16 µM) was 0.32% and the viability, T/C (second compound 0.003 µM, first compound 10 µM) was 0.52%.
For COc1cc(C)[nH]c(=O)c1CN1CCc2c(Cl)cc(C(OC)C3COC3)c(Cl)c2C1=O (stereo not given) + Cn1nnc2c(C(N)=O)ncn2c1=O, the IC50 (second compound 1 µM) was greater than 10000 nM, the IC50 (second compound 3.16 µM) was greater than 10000 nM and the IC50 (second compound 10 µM) was greater than 10000 nM. It also gave an IC50 (second compound 31.6 µM) greater than 10000 nM, an IC50 (second compound 100 µM) greater than 10000 nM and a viability, T/C [1] of 96.7%. The viability, T/C [2] was 93.1%, the viability, T/C [3] was 69.1% and the viability, T/C [4] was 69.2%. It also gave a viability, T/C [5] of 63.2%, a viability, T/C [6] of 63% and a viability, T/C [7] of 96.7%. It also gave a viability, T/C [8] of 84.2%, a viability, T/C [9] of 76.5% and a viability, T/C [10] of 66.2%. For the same molecule, the viability, T/C [11] was 64.6%, the viability, T/C [12] was 60.9% and the viability, T/C [13] was 95.3%. The viability, T/C [14] was 94.2%, the viability, T/C [15] was 75.6% and the viability, T/C [16] was 66.8%. For the same molecule, the viability, T/C [17] was 62.7%, the viability, T/C [18] was 63% and the viability, T/C [19] was 99.7%. The viability, T/C [20] was 96.3%, the viability, T/C [21] was 76.9% and the viability, T/C [22] was 66.8%. It also gave a viability, T/C [23] of 65.8%, a viability, T/C [24] of 64.6% and a viability, T/C [25] of 96.7%. For the same molecule, the viability, T/C [26] was 91.4%, the viability, T/C [27] was 74.8% and the viability, T/C [28] was 67.4%. It also gave a viability, T/C [29] of 68.9% and a viability, T/C [30] of 63.7%.
In the case of CC1COCCN1c1cc(-c2ccnn2C)c2ccnc(-c3ccn[nH]3)c2n1 (stereo not given) + Cn1nnc2c(C(N)=O)ncn2c1=O, the IC50 (second compound 1 µM) is reported as less than 31.6 nM, the IC50 (second compound 3.16 µM) is reported as less than 31.6 nM and the IC50 (second compound 10 µM) is reported as less than 31.6 nM. For the same molecule, the IC50 (second compound 31.6 µM) was less than 31.6 nM, the IC50 (second compound 100 µM) was less than 31.6 nM and the viability, T/C [1] was 29%. It also gave a viability, T/C [2] of 6.4%, a viability, T/C [3] of 2.45% and a viability, T/C [4] of 1.92%. For the same molecule, the viability, T/C [5] was 1.78%, the viability, T/C [6] was 2.4% and the viability, T/C [7] was 25.1%. It also gave a viability, T/C [8] of 6.11%, a viability, T/C [9] of 2.71% and a viability, T/C [10] of 2.03%. It also gave a viability, T/C [11] of 1.93%, a viability, T/C [12] of 2.28% and a viability, T/C [13] of 19%. It also gave a viability, T/C [14] of 6.18%, a viability, T/C [15] of 2.63% and a viability, T/C [16] of 2%. The viability, T/C [17] was 1.88%, the viability, T/C [18] was 2.59% and the viability, T/C [19] was 16.2%. The viability, T/C [20] was 4.45%, the viability, T/C [21] was 2.43% and the viability, T/C [22] was 2%. For the same molecule, the viability, T/C [23] was 2.1%, the viability, T/C [24] was 2.35% and the viability, T/C [25] was 6.2%. For the same molecule, the viability, T/C [26] was 4.15%, the viability, T/C [27] was 2.65% and the viability, T/C [28] was 2.04%. The viability, T/C [29] was 1.79% and the viability, T/C [30] was 1.82%.
